This is an account of results in patent US12642860B2, “Filamentous nanostructures and their use for treatment of pulmonary disease” (THE JOHNS HOPKINS UNIVERSITY, priority 2019, dated 2026).

The nature of data set [1]: Loading capacity of drugs/dye within KPA filaments. The data set is classed as physicochemical. The conditions noted are these: encapsulated in KPA filaments, % by mass. The text has this: FIGS. 20A-20C show (20A) the molecular structure of the lung disease-relevant drugs and fluorescent dye used in loading within the supramolecular filaments: paclitaxel (PTX, MW=853.92 g/mol), the anticancer drug; coumarin 6 (Cou6, MW=350.44 g/mol), the green fluorescent dye; and budesonide (BUD, MW=430.54 g/mol), the anti-inflammatory glucocorticoid used to treat symptoms of asthma and chronic obstructive pulmonary disease (top). (20B) The encapsulation process of hydrophobic drugs and dyes within supramolecular peptide amphiphile (PA)-based filaments, where dissolution of PA monomers and drug/dye in aqueous solutions results in their self-assembly with the drug/dye loaded within the hydrophobic core (left). The loading capacity of PTX, Cou6, and BUD based on mass (left axis, solid bars) and mole (right axis, checkered bars) percent within KPA supramolecular filaments (right). Data are given as mean±SD (n=5). (20C) Representative transmission electron microscopy (TEM) images of KPA filaments loaded with PTX (i, ii), Cou6 (iii, iv), and BUD (v, vi) before and after nebulization at 500 μM. Diameters are given as mean±SD (n=35).
With better insight into nebulization stability and the mechanism of supramolecular filament breakdown, we next sought to assess whether these systems can successfully carry drugs and dyes within aerosol droplets for potential inhalation-based therapies. […]

The nature of data set [2]: Jet nebulizer release profile and output. It is filed as physicochemical. The following applies: within KPA filaments 1 mM. On the procedure:
FIGS. 24A-24F are jet nebulizer release profiles of EPA, OPA, and KPA supramolecular filaments with starting formulation concentrations at (24A) 10 μM, (24B) 100 μM, and (24C) 1000 μM, showing a linear release pattern for each system over the course of a 10 min nebulization event (3 mL solution). Data given represent mean #SD (n=3); dashed lines represent line of best fit from linear regression analysis. (24D) The aerosol output rate (μg/min) of the supramolecular filaments from a jet nebulizer at different formulation concentrations, showing no statistically significant difference (ns) between filaments at the same concentration and output rate scales linearly with increasing concentration. Data are given as mean±SD (p>0.05 amongst filament systems, ****p<0.0001 amongst concentrations, two-way ANOVA, n=3). […]
We next monitored the release pattern of the supramolecular filaments in aerosol droplets from a jet nebulizer device alongside the output rate. First analyzing the blank EPA, OPA, and KPA filaments, 3 mL solutions of the filaments were loaded into a jet nebulizer at varying concentrations and the remaining concentration of PA molecules and fluid weight loss were monitored over the course of a 10 min nebulization event. FIGS. 24A-C represents the measured release profile of the three filament systems at 10 µM, 100 μM, and 1000 μM, respectively. […]

As to `CC(=O)O[C@H]1C(=O)[C@@]2(C)[C@H]([C@H](OC(=O)c3ccccc3)[C@]3(O)C[C@H](OC(=O)[C@H](O)[C@@H](NC(=O)c4ccccc4)c4ccccc4)C(C)=C1C3(C)C)[C@]1(OC(C)=O)CO[C@@H]1C[C@@H]2O` [PTX, paclitaxel], the “loading capacity by mass within KPA filaments” value in data set [1] was 1.5%.

With `CCN(CC)c1ccc2cc(-c3nc4ccccc4s3)c(=O)oc2c1` [Cou6, coumarin 6], the “loading capacity by mass within KPA filaments” value in data set [1] is recorded as 3.7%. Moreover, in data set [2], the “aerosol output rate of encapsulated molecules” value is reported as “comparable but higher than PTX”.
